Reference: patent publication US20150374646A1, “TREATMENT OF CANCER AND OTHER CONDITIONS USING A TRANSCRIPTION FACTOR MODULATOR” (C & C BIOPHARMA, LLC, priority 2013, published 2015)

Experiments:
[1] = tested on: K-562; experiment: Leukemia cell growth inhibition, CellTiter-Glo (Example 1); type: cell-based; conditions: Homo sapiens, K562; K-562, CML; 72 hours
Procedure: (§2) Various human leukemia cells were grown to the logarithmic growth phase and seeded into 24-well plates. […] Treated cells were further incubated for 72 hours and then were examined for cell proliferation. Cell proliferation was determined using the CellTiter-Glo Luminescence Cell Viability assay (Promega Corporation, Madison, Wis.) according to the manufacturer's protocol. The calculated inhibition rate was determined with the following formula: Inhibition rate (%)=(1−Luminescence of experimental group/Luminescence of control group)×100. IC50 is the calculated concentration of a compound needed to inhibit half of the maximum cell growth (equivalent to cell growth in control group) based on the corresponding dose-response curve under the described experimental conditions.

[2] = tested on: RCH-ACV; experiment: as above; type: cell-based; conditions: Homo sapiens, ALL (B-cell), 72 hours
Procedure: as §2

[3] = tested on: SR; experiment: as above; type: cell-based; conditions: Homo sapiens, Lymphoma, 72 hours
Procedure: as §2

[4] = tested on: REH; experiment: as above; type: cell-based, human; conditions: REH cells, 4 μM
Procedure: as §2

[5] = tested on: A498; experiment: Cancer cell line growth inhibition, CellTiter-Glo (Example 3); type: cell-based; conditions: Homo sapiens, Renal, 72 hours, read-out: IC50
Procedure: (§1) YT30 was tested for growth inhibition against 67 human cancer cell lines derived from diverse tissues including the National Cancer Institute human cancer cell lines (NCI-60). […] Cells in different wells were treated with various concentrations of YT30, YT86, YT88, or YT128. […] Cell viabilities were determined by the CellTiter-Glo Luminescence Cell Viability assay kit (Promega Corporation, Madison, Wis.) according to manufacturer's protocol.

[6] = tested on: A549; experiment: as above; type: cell-based; conditions: Homo sapiens, NSCLC, 72 hours, read-out: IC50
Procedure: as §1

[7] = tested on: ACHN; experiment: as above; type: cell-based; conditions: Homo sapiens, Renal, 72 hours
Procedure: as §1

[8] = tested on: CAK1; experiment: as above; type: cell-based; conditions: Homo sapiens, Renal, 72 hours
Procedure: as §1

[9] = tested on: DU-145; experiment: as above; type: cell-based; conditions: Homo sapiens, Prostate, 72 hours, read-out: IC50
Procedure: as §1

[10] = tested on: HL60; experiment: as above; type: cell-based; conditions: Homo sapiens, HL-60, Leukemia, 72 hours, read-out: IC50
Procedure: as §1

[11] = tested on: HOP-92; experiment: as above; type: cell-based; conditions: Homo sapiens, NSCLC, 72 hours
Procedure: as §1

[12] = tested on: HS 578T; experiment: as above; type: cell-based; conditions: Homo sapiens, Breast, 72 hours, read-out: IC50
Procedure: as §1

[13] = tested on: K562; experiment: as above; type: cell-based; conditions: Homo sapiens, Leukemia, 72 hours, read-out: IC50
Procedure: as §1

[14] = tested on: MOLT-4; experiment: as above; type: cell-based; conditions: Homo sapiens, Leukemia, 72 hours, read-out: IC50
Procedure: as §1

[15] = tested on: NCI-H522; experiment: as above; type: cell-based; conditions: Homo sapiens, NSCLC, 72 hours
Procedure: as §1

[16] = tested on: OVCAR-5; experiment: as above; type: cell-based; conditions: Homo sapiens, Ovary, 72 hours, read-out: IC50
Procedure: as §1

[17] = tested on: RCH-HCV; experiment: as above; type: cell-based; conditions: Homo sapiens, Leukemia, 72 hours
Procedure: as §1

[18] = tested on: RPMI-8226; experiment: as above; type: cell-based; conditions: Homo sapiens, Leukemia, 72 hours
Procedure: as §1

[19] = tested on: SEM cells; experiment: as above; type: cell-based; conditions: Homo sapiens, Leukemia, 72 hours
Procedure: as §1

[20] = tested on: SK-OV-3; experiment: as above; type: cell-based; conditions: Homo sapiens, Ovary, 72 hours
Procedure: as §1

[21] = tested on: SR; experiment: as above; type: cell-based; conditions: Homo sapiens, Leukemia, 72 hours, read-out: IC50
Procedure: as §1

[22] = tested on: SW-620; experiment: as above; type: cell-based; conditions: Homo sapiens, Colon, 72 hours
Procedure: as §1

[23] = tested on: TK-10; experiment: as above; type: cell-based; conditions: Homo sapiens, Renal, 72 hours, read-out: IC50
Procedure: as §1

[24] = tested on: UACC-62; experiment: as above; type: cell-based; conditions: Homo sapiens, Melanoma, 72 hours
Procedure: as §1

[25] = tested on: UO-31; experiment: as above; type: cell-based; conditions: Homo sapiens, Renal, 72 hours, read-out: IC50
Procedure: as §1

[26] = tested on: K562 cells; experiment: Subcutaneous K562 (CML) tumor growth in SCID mice (Example 6); type: in vivo; conditions: for Average body weight, End point / Average body weight, Initial / Tumor size / Tumor weight: x ± s; for Average body weight, Initial: initial (before treatment)
Procedure: Male Severe Combined Immunodeficiency (SCID) mice that were 4-6 weeks old were used in the experiment. The mice were fed under specific pathogen free (SPF) conditions. Food and water were available to the mice at will. A suspension of 8×10^6 chronic myelogenous leukemia K562 cells (0.2 mL) was inoculated subcutaneously into the right back of the SCID mice.
The general conditions of the mice and the growth of the transplanted tumor were monitored. […] The control group received an intraperitoneal injection (IP) of 0.2 mL solvent (20% DMSO, 80% of 20% w/v (2-hydroxypropyl)-β-cyclodextrin made in PBS). […] The YT30 treated groups received either intraperitoneal injection of 50 mg/kg/day of YT30 (0.2 mL in volume) suspended in solvent (20% DMSO, 80% of 20% w/v (2-hydroxypropyl)-β-cyclodextrin made in PBS) or oral gavage of 90 mg/kg/day YT30 in solvent (Cremophor RH40:TW80:PEG400 (2:1:1)). Frequency of the administration was once per day and the experiment lasted 16 days after initiation of the treatment.
The body weights of the mice were recorded prior to the start of treatment and twice every week thereafter. Each mouse of every group was monitored daily for any other symptoms of side effects including change in behavior, activity or posture, areas of redness and swelling, and food and water withdrawal. Caliper measurements of the longest perpendicular tumor diameters were performed every 2 days to estimate the tumor volume; the following formula: 4π/3×(width/2)^2×(length/2) was used to calculate the three-dimensional volume of an ellipse. The tumor inhibition rate was calculated according to tumor volume: Tumor inhibition rate by size (%)=(Tumor volume of the control group−Tumor volume of the treated group)/Tumor volume of the control group×100. The SCID mice were euthanized 2 hours after the final injection and the subcutaneous tumor nodules were taken out intact and weighed. The tumor inhibition rate was calculated again according to tumor weight: Tumor inhibition rate by weight (%)=(Tumor weight of the control group−Tumor weight of the treated group)/Tumor weight of the control group×100.

[27] = YT30 50 mg/kg i.p. × 16 days, SCID mice, K562 tumor
[28] = YT30 90 mg/kg p.o. × 16 days, SCID mice, K562 tumor

Nc1ccccc1NC(=O)CCCCCC(=O)Nc1cccc(Br)c1 [YT30] was tested, and the IC50 [1] was 1.82 µM, the IC50 [2] was 0.79 µM and the IC50 [3] was 6.89 µM. The “Growth inhibition (FIG. 1)” value [4] was “significantly inhibit cell growth”, the IC50 [5] was 13.9 µM and the IC50 [6] was 3.41 µM. The IC50 [7] was 12.5 µM, the IC50 [8] was 11.7 µM and the IC50 [9] was 4.98 µM. For the same compound, the IC50 [10] was 1.04 µM, the IC50 [11] was 11 µM and the IC50 [12] was 10.8 µM. The IC50 [13] was 1.82 µM, the IC50 [14] was 1.13 µM and the IC50 [15] was 8.15 µM. The IC50 [16] was 11.9 µM, the IC50 [17] was 0.79 µM and the IC50 [18] was 2 µM. The IC50 [19] was 1.15 µM, the IC50 [20] was 8.09 µM and the IC50 [21] was 6.89 µM. It also gave an IC50 [22] of 11 µM, an IC50 [23] of 16.1 µM and an IC50 [24] of 5.2 µM. For the same compound, the IC50 [25] was 10.7 µM, the Body weight change [26, 27] was −8.67% and the “Tumor growth inhibition by size” value [26, 27] was 44.07%. For the same compound, the “Tumor growth inhibition by weight” value [26, 27] was 40.76%, the “Average body weight, End point” value [26, 27] was 16.75 ± 1.57 g and the “Average body weight, Initial” value [26, 27] was 18.34 ± 0.73 g. The Tumor size [26, 27] was 1741.11 ± 1218.90 mm^3, the Tumor weight [26, 27] was 2.16 ± 1.86 g and the Body weight change [26, 28] was −5.30%. The “Tumor growth inhibition by size” value [26, 28] was 41.77%, the “Tumor growth inhibition by weight” value [26, 28] was 33.17% and the “Average body weight, End point” value [26, 28] was 17.70 ± 2.03 g. The “Average body weight, Initial” value [26, 28] was 18.69 ± 1.36 g, the Tumor size [26, 28] was 1812.71 ± 581.68 mm^3 and the Tumor weight [26, 28] was 2.44 ± 0.92 g. The “Tumor growth inhibition by weight” value ([26]; intraperitoneal 50 mg/kg/day, 16 days of treatment) was 40.76% and the “Tumor growth inhibition by weight” value ([26]; oral gavage 90 mg/kg/day, 16 days of treatment) was 33.17%.
